Laboratory results: the NIST ThermoML archive (doi:10.1016/j.tca.2018.01.023)
“And” between values parts separate entries of the source, which are not always exact repeats. Equal values may be shown once.

Assay: molar heat capacity at constant pressure
Conditions: 101.33 kPa, Crystal, Small sample (50 mg) DSC

[Ca+2].[O]=[Mo](=[O])([O-])[O-] [calcium molybdate(VI)]
Conditions	molar heat capacity at constant pressure
596.4 K	141.2 J/K/mol
597 K	142.1 J/K/mol
597.4 K	141.3 J/K/mol
598 K	142.2 J/K/mol
598.4 K	141.3 J/K/mol
599 K	142.2 J/K/mol
599.4 K	141.3 J/K/mol
600 K	141.5 J/K/mol and 142.3 J/K/mol
600.4 K	141.3 J/K/mol
601 K	142.4 J/K/mol
601.4 K	141.4 J/K/mol
602 K	142.4 J/K/mol
602.4 K	141.4 J/K/mol
603 K	142.5 J/K/mol
603.4 K	141.4 J/K/mol
604.1 K	142.4 J/K/mol
604.4 K	141.4 J/K/mol
605.1 K	142.4 J/K/mol
605.4 K	141.4 J/K/mol
606.1 K	142.4 J/K/mol
606.4 K	141.5 J/K/mol
607.1 K	142.5 J/K/mol
607.4 K	141.5 J/K/mol
608.1 K	142.5 J/K/mol
608.4 K	141.5 J/K/mol
609.1 K	142.6 J/K/mol
609.4 K	141.5 J/K/mol
610.1 K	142.7 J/K/mol
610.4 K	141.5 J/K/mol
611.1 K	142.7 J/K/mol
611.4 K	141.5 J/K/mol
612.1 K	142.7 J/K/mol
612.4 K	141.5 J/K/mol
613.1 K	142.8 J/K/mol
613.4 K	141.6 J/K/mol
614.1 K	142.8 J/K/mol
614.4 K	141.6 J/K/mol
615.1 K	142.8 J/K/mol
615.4 K	141.6 J/K/mol
616.1 K	142.9 J/K/mol
616.4 K	141.6 J/K/mol
617.1 K	142.9 J/K/mol
617.4 K	141.6 J/K/mol
618.1 K	142.9 J/K/mol
618.4 K	141.6 J/K/mol
619.1 K	143 J/K/mol
619.4 K	141.5 J/K/mol
620 K	142.4 J/K/mol
620.1 K	143.1 J/K/mol
620.4 K	141.5 J/K/mol
621.1 K	143.2 J/K/mol
621.4 K	141.4 J/K/mol
622.1 K	143.2 J/K/mol
622.4 K	141.5 J/K/mol
623.1 K	143.3 J/K/mol
623.4 K	141.5 J/K/mol
624.1 K	143.3 J/K/mol
624.4 K	141.6 J/K/mol
624.5 K	143.3 J/K/mol
625.4 K	141.6 J/K/mol
626.4 K	141.7 J/K/mol
627.4 K	141.7 J/K/mol
628.4 K	141.7 J/K/mol
629.4 K	141.8 J/K/mol
630.4 K	141.8 J/K/mol
631.4 K	141.9 J/K/mol
632.4 K	142.1 J/K/mol
633.4 K	142.2 J/K/mol
634.4 K	142.3 J/K/mol
635.4 K	142.3 J/K/mol
636.4 K	142.4 J/K/mol
637.4 K	142.4 J/K/mol
638.4 K	142.4 J/K/mol
639.4 K	142.5 J/K/mol
640 K	143.2 J/K/mol
640.4 K	142.6 J/K/mol
641.4 K	142.7 J/K/mol
642.4 K	142.8 J/K/mol
643.4 K	142.8 J/K/mol
644.4 K	142.9 J/K/mol
645.4 K	142.9 J/K/mol
646.4 K	143 J/K/mol
647.4 K	143 J/K/mol
648.4 K	143 J/K/mol
649.4 K	143.1 J/K/mol
650.4 K	143.2 J/K/mol
651.4 K	143.2 J/K/mol
652.4 K	143.3 J/K/mol
653.4 K	143.4 J/K/mol
654.4 K	143.4 J/K/mol
655.4 K	143.5 J/K/mol
656.4 K	143.6 J/K/mol
657.4 K	143.6 J/K/mol
658.4 K	143.7 J/K/mol
659.4 K	143.8 J/K/mol
660 K	144 J/K/mol
660.4 K	143.8 J/K/mol
661.4 K	143.9 J/K/mol
662.4 K	144 J/K/mol
663.4 K	144 J/K/mol
664.4 K	144.1 J/K/mol
665.4 K	144.2 J/K/mol
666.4 K	144.2 J/K/mol
667.4 K	144.3 J/K/mol
668.4 K	144.3 J/K/mol
669.4 K	144.4 J/K/mol
670.4 K	144.4 J/K/mol
671.4 K	144.4 J/K/mol
672.4 K	144.5 J/K/mol
673.4 K	144.5 J/K/mol
674.4 K	144.5 J/K/mol
675.4 K	144.5 J/K/mol
676.4 K	144.6 J/K/mol
677.4 K	144.6 J/K/mol
678.4 K	144.7 J/K/mol
679.4 K	144.8 J/K/mol
680 K	144.7 J/K/mol
680.4 K	144.9 J/K/mol
681.4 K	144.9 J/K/mol
682.4 K	145 J/K/mol
683.4 K	145.1 J/K/mol
684.4 K	145.2 J/K/mol
685.4 K	145.3 J/K/mol
686.4 K	145.3 J/K/mol
687.4 K	145.4 J/K/mol
688.4 K	145.4 J/K/mol
689.4 K	145.5 J/K/mol
690.4 K	145.5 J/K/mol
691.4 K	145.6 J/K/mol
692.4 K	145.6 J/K/mol
693.4 K	145.7 J/K/mol
694.4 K	145.8 J/K/mol
695.4 K	145.8 J/K/mol
696.4 K	145.9 J/K/mol
697.4 K	145.9 J/K/mol
698.4 K	145.9 J/K/mol
699.4 K	145.9 J/K/mol
700 K	145.4 J/K/mol
700.4 K	145.9 J/K/mol
701.4 K	145.9 J/K/mol
702.4 K	145.9 J/K/mol
703.4 K	145.9 J/K/mol
704.4 K	145.9 J/K/mol
705.4 K	145.9 J/K/mol
706.4 K	145.8 J/K/mol
707.4 K	145.8 J/K/mol
708.4 K	145.8 J/K/mol
709.4 K	145.9 J/K/mol
710.4 K	145.9 J/K/mol
711.4 K	145.9 J/K/mol
712.4 K	146 J/K/mol
713.4 K	146 J/K/mol
714.4 K	146 J/K/mol
715.4 K	146 J/K/mol
716.4 K	146.1 J/K/mol
717.4 K	146.2 J/K/mol
718.4 K	146.2 J/K/mol
719.4 K	146.3 J/K/mol
720 K	146.1 J/K/mol
720.4 K	146.3 J/K/mol
721.4 K	146.3 J/K/mol
722.4 K	146.3 J/K/mol
723.4 K	146.4 J/K/mol
724.4 K	146.4 J/K/mol
725.4 K	146.5 J/K/mol
726.4 K	146.5 J/K/mol
727.4 K	146.6 J/K/mol
728.4 K	146.6 J/K/mol
729.4 K	146.6 J/K/mol
730.4 K	146.7 J/K/mol
731.4 K	146.7 J/K/mol
732.4 K	146.7 J/K/mol
733.4 K	146.7 J/K/mol
734.4 K	146.7 J/K/mol
735.4 K	146.7 J/K/mol
736.4 K	146.7 J/K/mol
737.4 K	146.7 J/K/mol
738.4 K	146.8 J/K/mol
739.4 K	146.9 J/K/mol
740 K	146.8 J/K/mol
740.4 K	147 J/K/mol
741.4 K	147 J/K/mol
742.4 K	147.1 J/K/mol
743.4 K	147.1 J/K/mol
744.4 K	147.1 J/K/mol
745.4 K	147.2 J/K/mol
746.4 K	147.2 J/K/mol
747.4 K	147.3 J/K/mol
748.4 K	147.3 J/K/mol
749.4 K	147.3 J/K/mol
750.4 K	147.3 J/K/mol
751.4 K	147.4 J/K/mol
752.4 K	147.4 J/K/mol
753.4 K	147.4 J/K/mol
754.4 K	147.5 J/K/mol
755.4 K	147.5 J/K/mol
756.4 K	147.6 J/K/mol
757.4 K	147.7 J/K/mol
758.4 K	147.7 J/K/mol
759.4 K	147.8 J/K/mol
760 K	147.4 J/K/mol
760.4 K	147.8 J/K/mol
761.4 K	147.8 J/K/mol
762.4 K	147.7 J/K/mol
763.4 K	147.7 J/K/mol
764.4 K	147.7 J/K/mol
765.4 K	147.8 J/K/mol
766 K	147.5 J/K/mol
766.4 K	147.9 J/K/mol
